Data: US12251382B2, “Substituted amino-pyrimidine compound for use in a method for treatment and prevention of multiple sclerosis” (Merck Patent GmbH, priority 2018, dated 2025)
Where a name gives a salt, the structure may show the parent alone.

Experiments:
[1] = tested on: human patients suffering from relapsing multiple sclerosis (RMS); assay: Phase II RMS study: brain MRI (Gd+ T1 lesions, T2 lesions); type: in vivo; parameters: key to Gd+ T1 lesion rate (subject level), Median / Gd+ T1 Lesion rate, adjusted (negative binomial model): number of Gd+ T1 lesions per scan
Description: (§1) The assessing Investigator and central MRI reader were treatment blinded.
The protocol specified that subjects self-administered the IMP at a set time each day (every 12 hours ±2 hours). Subjects were to take their daily dose more than 1 hour prior to a meal or snack and more than 2 hours after a meal or snack. Clear fluids were allowed at any time. On trial visit days, the IMP was to be administered during the trial visit after the scheduled trial visit procedures (other than post-treatment PK/PD sampling) are completed.
Stratification occurred by region (USA or Western Europe, Eastern Europe and BTKO capable, Eastern Europe and not BTKO capable, and RoW). For the first 7 days, Tecfidera was administered orally at 120 mg twice daily. Following this and for the duration of treatment, Tecfidera was administered orally at 240 mg twice daily.
The protocol specified that MRI scans were to be performed at Screening, at 4-week intervals from Week 12 to 24, and at the End of Treatment Visit at Week 48 (including for subjects receiving Tecfidera who choose to enter the OLE Period). […] If a subject discontinued the study more than 4 weeks after his or her most recent MRI, the protocol specified that an MRI may be obtained at the 4-week Safety Follow-up Visit. The Screening MRI scan was to be acquired before randomization and dosing to allow for the readouts to be read by the central MRI reader (approximately 7 days).
Gadolinium was used to enhance T1-weighted lesions and to optimize clarity and accuracy of reporting. As gadolinium is excreted renally, subjects with acute renal insufficiency (eGFR <45 mL/min/1.73 m^2) will be excluded from the trial.
The protocol specified that brain MRI scans were performed according to a standardized imaging protocol before and after the administration of single-dose gadolinium. Images were assessed and reported by an independent, blinded, centralized MRI reading service, provided by NeuroRx Research. The assessment was performed in the absence of clinical information. Further details, including the scans required and the optimal MRI workflow, were provided in a separate Imaging Manual provided to each trial site by NeuroRx Research. All MRI images were reviewed and reported locally by a radiologist for safety. The local report was to contain only non-MS pathology and was to be provided to the Treating Investigator.
The primary endpoint was the total number of gadolinium-enhancing T1 lesions at Week 12, 16, 20, and 24. The primary analysis was a comparison of each evobrutinib dose arm versus placebo based on this endpoint, with a supportive test for dose-response. Secondary Endpoints
Other covariates were permitted to be considered. […] Descriptive statistics for the total number of Gd+ T1 lesions, at Week 12, 16, 20, and 24, are provided for each treatment group.
Estimation of mean per-scan number of Gd+ T1 lesions at Weeks 12, 16, 20, and 24, for each treatment group, was based on the NB model. In the analysis of each secondary endpoint, other covariates were permitted to be included in the model.
Primary and secondary efficacy endpoints were analysed based on the modified intention-to-treat (mITT) analysis set, consisting of all randomized patients with at least one available baseline and one post-baseline MRI assessment. […] For each endpoint, rate ratio (RR; null-hypothesis RR=1.0) adjusted for baseline disease activity was reported together with associated 95% CI and p-value. The T2 lesion endpoint was analysed similarly. Dose-response relationships between evobrutinib treatment dose and primary and key secondary endpoints were assessed for linear and monotonic trend. The analysis of CFB in cube root of volume of T2 lesions at Week 24 was based on a mixed-effect model for repeated measures, with fixed effects for treatment, week of visit, and treatment-by-week interaction, random effect for subject, and adjustment for baseline cube root of lesion volume. CFB in SF-36 score at Week 24 was analysed similarly. […]

[2] = tested on: human patients suffering from relapsing multiple sclerosis (RMS); assay: Phase II RMS study: qualified relapse assessment (ARR, relapse-free status); type: in vivo; settings: open-label reference arm, 240 mg twice daily, Week 24
Description: as §1
Subjects were assessed for MS relapse at visits beginning at Week 4. Relapse was also assessed at any Unscheduled Visit for Neurological Worsening and Relapse Assessment. For subjects in the OLE Period, MS relapse was assessed at all visits. A qualifying relapse was defined as new, worsening or recurrent neurological symptoms attributed to MS that last for at least 24 hours without fever or infection, or adverse reaction to prescribed medication, preceded by a stable or improving neurological status of at least 30 days. The relapse must have been accompanied by new clinical signs (i.e., changes in the neurological examination or an increase in EDSS score).
The protocol specified that all cases of potential relapse were to be objectively confirmed by the Investigator regardless of whether they were identified during a scheduled or unscheduled visit. Any assessments needed to confirm the relapse were to be performed, and details of the relapse were to be documented within the relevant section(s) of the eCRF.
Additional Secondary Endpoints
Analysis of secondary endpoints was based on the mITT analysis set. […] Descriptive statistics for ARR were calculated for each treatment group as the total number of qualified relapses divided by the number of subject-years of observation.
(§2) Primary and secondary efficacy endpoints were analysed based on the modified intention-to-treat (mITT) analysis set, consisting of all randomized patients with at least one available baseline and one post-baseline MRI assessment. […] For each endpoint, rate ratio (RR; null-hypothesis RR=1.0) adjusted for baseline disease activity was reported together with associated 95% CI and p-value. The T2 lesion endpoint was analysed similarly. Dose-response relationships between evobrutinib treatment dose and primary and key secondary endpoints were assessed for linear and monotonic trend. The analysis of CFB in cube root of volume of T2 lesions at Week 24 was based on a mixed-effect model for repeated measures, with fixed effects for treatment, week of visit, and treatment-by-week interaction, random effect for subject, and adjustment for baseline cube root of lesion volume. CFB in SF-36 score at Week 24 was analysed similarly. Descriptive statistics were used to further describe the study outcomes.

[3] = tested on: human patients suffering from relapsing multiple sclerosis (RMS); assay: Phase II RMS study: HRQoL SF-36 Physical Component Summary score; type: in vivo; settings: open-label reference arm, 240 mg twice daily
Description: Analysis of Primary Endpoint
as §2

[4] = Phase II RMS study: safety (adverse events, laboratory) over 24 weeks; type: in vivo; settings: 240 mg twice daily, 24 weeks
Description: as §1
Safety profile of the IMP was assessed through the recording, reporting and analysis of baseline medical conditions; AEs; physical examination findings including vital signs, ECGs, and laboratory tests (including Ig and subclass concentration and B, NK, and T cell counts). Comprehensive assessment of any apparent toxicity experienced by each subject was performed from the time of giving informed consent and throughout the trial. The Investigator was to report any AEs, whether observed by the Investigator or reported by the subject.
Adverse Event: An AE was any untoward medical occurrence in a subject or clinical investigation subject administered a pharmaceutical product, regardless of causal relationship with this treatment. An AE could therefore be any unfavorable and unintended sign (including an abnormal laboratory finding), symptom, or disease temporally associated with the use of a medicinal product, whether or not considered related to the medicinal product.
The Investigator was required to grade the severity or toxicity of each AE. Investigators referenced the National Cancer Institute-Common Terminology Criteria for AEs (NCI-CTCAE), Version 4.03 (publication date: 14 Jun. 2010) a descriptive terminology provided in the Manual of Procedures that can be used for AE reporting.
A general grading (severity/intensity; hereafter referred to as severity) scale was provided at the beginning of the above referenced document, and specific event grades were also provided. Only if a particular AE's severity was not specifically graded by the guidance document, then the Investigator was to use the general NCI-CTCAE definitions of Grade 1 through Grade 5 following his or her best medical judgment. The 5 general grades are: • Grade 1 or Mild • Grade 2 or Moderate • Grade 3 or Severe • Grade 4 or Life-threatening • Grade 5 or Death.
Serious Adverse Events: An SAE is any untoward medical occurrence that at any dose: • Results in death. • Is life-threatening. (Note: The term “life-threatening” refers to an event in which the subject is at risk of death at the time of the event, not an event that hypothetically might have caused death if it was more severe) • Requires inpatient hospitalization or prolongs an existing hospitalization, except in the case of hospitalizations due to protocol-defined relapses. • Results in persistent or significant disability or incapacity. • Is a congenital anomaly or birth defect. • Is otherwise considered to be medically important.

[5] = therapeutic or supratherapeutic doses, thorough QT studies; cited from earlier work
[6] = open-label reference arm, 240 mg twice daily

Compound | Total Gd+ T1 lesions over 4 scans in an outlier patient ([1]; one patient of the open-label reference arm) | Change in volume of T2 lesions from baseline to week 24, Mean ± SD [1, 6] [cc] | Change in volume of T2 lesions from baseline to week 24, Median [1, 6] [cc] | Gd+ T1 lesion rate (subject level), Median [1, 6] | Gd+ T1 lesion rate (subject level; count per scan, weeks 12-24), Mean ± SD [1, 6] | Total Number of New or Enlarging T2 Lesions at Week 24, Mean ± SD [1, 6] | Total number of Gd+ T1 lesions at Weeks 12, 16, 20, 24, Mean ± SD [1, 6] | Total number of Gd+ T1 lesions at Weeks 12, 16, 20, 24, Median (min-max) [1, 6] | New or enlarging T2 lesion rate (subject level), Mean ± SD ([1]; open-label reference arm, 240 mg twice daily, Weeks 12-24) | Total number of Gd+ T1 lesions at Weeks 12, 16, 20, 24, Mean ± SD ([1]; open-label reference arm, 240 mg twice daily, listed as dimethyl fumarate) | Proportion of patients who qualified as relapse-free [2] [%] | Unadjusted ARR [2] | Change in SF-36 PCS score from baseline to week 24, Mean ± SD [3] | Change in SF-36 PCS score from baseline to week 24, Median [3] | Change in SF-36 PCS score from baseline to week 24, Mean ± SD ([3]; listed as dimethyl fumarate) | TEAE: Infections and infestations [4] | TEAE: Urinary tract infection [4] | Prolongation of the QTc interval [5]
COC(=O)/C=C/C(=O)OC [Dimethyl fumarate, dimethyl fumarate, reference compound] | 230 | 0.46 ± 2.97 | −0.02 | 0.0 | 1.45 ± 7.29 | 5.35 ± 16.67 | 5.78 ± 29.17 | 0 (0-213) | 1.54 ± 5.46 | 5.78 (±29.17) | 89 | 0.20 | 1.6 ± 5.17 | 1.7 | 1.6±5.17 | 7 (13.0) n (%) | 0 (0.0) n (%) | –
CC#CC(=O)N1CCC[C@H]1c1nc(-c2ccc(C(=O)Nc3ccccn3)cc2)c2c(N)nccn12 [acalabrutinib] | – | – | – | – | – | – | – | – | – | – | – | – | – | – | – | – | – | Neither ibrutinib nor acalabrutinib have been associated with clinically relevant prolongation of the QTc interval
